Measurements reported in paper PMC7734281, “Functionalized Oxoindolin Hydrazine Carbothioamide Derivatives as Highly Potent Inhibitors of Nucleoside Triphosphate Diphosphohydrolases” (Frontiers in Pharmacology, 2020).
“Also recorded” adds a separate entry of the source.

Key:
mice pancreatic islets = assay: Glucose stimulated insulin secretion in isolated mice islets (ELISA); assay type: cell-based, BALB/c mice; conditions: 16.7 mM glucose; for Effect on glucose stimulated insulin secretion: compound 200 µM, 1 h, 37°C
Procedure: Six to eight week old BALB/c mice, weighing 30–40 g, were used in the study. These mice were obtained from the animal house of COMSATS University Islamabad, Abbottabad Campus and placed under standard temperature (25 ± 2°C) and humidity (50–55%) conditions with an alternate 12-h light/dark cycle. All the experimental animals were provided with a continuous supply of food and water. The animals were handled according to internationally accepted guidelines of animal care and use. Moreover, this study was reviewed and approved by Research Ethics Committee, Department of Pharmacy, COMSATS University Islamabad, Abbottabad Campus. (Protocol number: PHM.Eth./CS-M01-020-1609)
The islets were isolated from mice pancreas as previously described, by a process involving collagenase digestion ([Hameed et al., 2018]). Briefly, mice were anesthetized with sodium thiopental (30 mg kg) and sacrificed by cervical dislocation to block the flow of blood. Immediately, mice were transferred to biological hood and their abdominal cavity was opened completely by making an incision on abdomen. In order to stop the bile flow toward duodenum, ampulla was located and clamped under dissection microscope. Then, distention of pancreas was carried out by injecting 3 ml of collagenase solution (1 mg/ml) through common bile duct. The distended pancreas was removed as a whole, transferred to a 50 ml tube and digested in collagenase solution at 37°C. After 15 min, digestion was stopped by placing the tube on ice and 20 ml of Hank’s Balanced Salt Solution (HBSS) was added to it. Thus the digested islets were washed with HBSS (two to three times) by centrifugation (1,000 rpm) for 1 min at 4°C. Finally, islets were purified by passing through a cell strainer (70 µm) and isolated manually (by hand picking) under stereomicroscope (Euromex, Arnhem, Netherlands). All the purification and isolation procedures were carried out in HBSS, containing no magnesium, calcium and phenol red.
Krebs-Ringer bicarbonate buffer (KRBB) was used as an incubation medium for islets and was composed of NaCl (118 mM), KCl (4.7 mM), CaCl2 (1.9 mM), MgSO4 (1.2 mM), NaHCO3 (25 mM), 4-(2-hydroxyethyl)-1-piperazineethanesulfonic acid (HEPES, 10 mM) and bovine serum albumin (0.1%). The pH of KRBB was maintained at 7.4. The isolated islets were size-matched and pre-incubated (3 islets/tube) for 45 min at 37°C in KRBB, supplemented with 3 mM glucose. Thereafter, incubation medium was replaced with fresh KRBB (containing 16.7 mM glucose) and islets were incubated for 60 min at 37°C with or without test substance(s). After incubation, supernatant was collected and stored at −40°C until further use. Finally, collected samples were properly diluted and insulin secretion was estimated with ultra-sensitive mouse insulin ELISA kit (Crystal Chem Inc., Downers Grove, United States) according to the manufacturer’s instructions. The absorbance was measured at 450 nm and insulin secretion was normalized for number of islets used. ([Hameed et al., 2018]).

h-NTPDase8 = target: T1, h-NTPDase8 (Homo sapiens, UniProt Q5MY95); assay: h-NTPDase8 inhibition, malachite green assay; assay type: biochemical; conditions: Lineweaver-Burk plot
T1 construct: made in house; host or cells: COS-7 cells, transient transfection; crude protein extract after sonication
T1 sequence (Q5MY95 1-495): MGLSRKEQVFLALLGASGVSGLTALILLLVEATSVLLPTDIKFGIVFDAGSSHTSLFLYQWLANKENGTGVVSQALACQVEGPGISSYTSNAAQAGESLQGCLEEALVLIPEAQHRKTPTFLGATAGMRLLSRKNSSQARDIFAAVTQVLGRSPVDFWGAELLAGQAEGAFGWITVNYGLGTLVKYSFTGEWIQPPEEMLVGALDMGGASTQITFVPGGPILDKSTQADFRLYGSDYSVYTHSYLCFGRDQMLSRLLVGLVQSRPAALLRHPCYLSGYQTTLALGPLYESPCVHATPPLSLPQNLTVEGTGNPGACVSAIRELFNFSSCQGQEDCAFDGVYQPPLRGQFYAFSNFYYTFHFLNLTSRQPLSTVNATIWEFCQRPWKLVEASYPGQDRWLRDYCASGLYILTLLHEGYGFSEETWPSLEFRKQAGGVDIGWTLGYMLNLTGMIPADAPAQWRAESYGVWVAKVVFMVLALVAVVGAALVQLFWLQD

[1] = system: ectonucleotidase activity in islets homogenate; assay: Ectonucleotidase activity of islet homogenate (malachite green, Pi release); assay type: biochemical, mice; conditions: for Effect on ectonucleotidase activity in islets homogenate: compound 100 µM, 100 µM ATP as substrate, versus control
Procedure: Islets were isolated and homogenized, according to the previously reported method ([Hedeskov and Capito, 1974]). After isolation, islets were washed thrice with HBSS and suspended in an ice-cold buffer containing sucrose (0.25 M), ethylenediaminetetraacetic acid (EDTA,1 mM) and tris-HCl (5 mM), maintained at pH 7.0. The resulting suspension was diluted with assay buffer, composed of tris-HCl (50 mM) and CaCl2 (5 mM). Afterward, these islets were sonicated for 30 s leading to disruption of islets and formation of a homogenate. Cellular debris was removed by centrifugation at 15,000 rpm for 10 min (4°C). The supernatant was collected and stored on ice. Protein concentration was estimated by Bradford method, using bovine serum albumin as reference standard ([Bradford, 1976]).
In order to determine the effect of compounds on ectonucleotidase activity in mice islets, standard curve based procedure was used where KH2PO4 was used as a standard. A stock solution of KH2PO4 (1 mM) was prepared in assay buffer that was used to prepare the working solutions of lower concentrations (0–100 µm). A standard curve was generated by incubating increasing concentration of KH2PO4 with buffer and malachite green reagent.
The assay was carried out in tris-buffer (pH 7.4) containing tris-HCl (50 mM) and CaCl2 (5 mM), as previously described ([Lavoie et al., 2010]). Compounds were dissolved in DMSO (10%) and tested at a concentration of 100 µM. The assay was started by adding 10 µl of test compound solution to 56 µl of assay buffer, followed by the addition of 6 µl of homogenate (i.e., 3 µg of protein). The mixture was incubated at 37°C for 10 min and then 10 µl of ATP (100 µM) was added to start the reaction. Reaction mixture was again placed in incubator at 37°C for 15 min and then reaction was stopped by adding 100 µl of trichloroacetic acid (10%). […] Finally, samples were mixed with malachite green reagent in an appropriate proportion and released Pi was determined by using standard curve. […] All the experiments were carried out in triplicate and enzyme activity was expressed as […] of Pi/min/mg of protein.

SMILES	Effect on glucose stimulated insulin secretion (mice pancreatic islets)	Mode of inhibition of h-NTPDase8 (h-NTPDase8)	Dose-dependent effect on insulin secretion (mice pancreatic islets; 10–200 µM)	Effect on ectonucleotidase activity in islets homogenate [1]	Dose response of ectonucleotidase activity in islet homogenate ([1]; different concentrations, 100 µM ATP, Pi release)
O=C1Nc2ccccc2/C1=N/NC(=S)Nc1ccc(Cl)cc1 [8c, (Z)-N-(4-chlorophenyl)-2-(2-oxoindolin-3-ylidene)hydrazine-1-carbothioamide]	no significant effect on insulin secretion; also recorded: did not show any significant effect on insulin secretion	competitive			
CCNC(=S)N/N=C1\C(=O)Nc2ccccc21 [8m, (Z)-N-ethyl-2-(2-oxoindolin-3-ylidene)hydrazine-1-carbothioamide]	potently stimulated insulin secretion; also recorded: significant increase in glucose stimulated insulin secretion		dose dependent increase in insulin release; also recorded: dose dependent increase in insulin secretion	significantly decreased the ectonucleotidase activity; also recorded: significantly reduced the enzyme activity; also recorded: significant reduction in ectonucleotidase activity; also recorded: significantly reduced ectonucleotidase activity	dose dependent decrease in enzyme activity
Cc1ccc(C(=O)Nc2ccc(S(=O)(=O)O)c3cc(S(=O)(=O)O)cc(S(=O)(=O)O)c23)cc1NC(=O)c1cccc(NC(=O)Nc2cccc(C(=O)Nc3cc(C(=O)Nc4ccc(S(=O)(=O)O)c5cc(S(=O)(=O)O)cc(S(=O)(=O)O)c45)ccc3C)c2)c1 [Suramin, reference compound]	Neither suramin nor isatin had any significant effect			significantly reduced the enzyme activity	
